Laboratory results reported in PubChem BioAssay (NCI).
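Grown in 96-well plates, cells were treated for 48 hours with each compound at five concentrations. Insufficient inhibition: endpoint recorded as highest concentration tested. At the GI50, growth is halved. TGI: concentration producing complete growth inhibition.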

Tests used:
Experiment in all cases: DTP human tumour cell line panel, 48 h
[1] = system: MOLT-4 leukemia
[2] = system: CAKI-1 renal
[3] = system: SF-295 CNS
[4] = system: NCI-H23 lung
[5] = system: SF-539 CNS
[6] = system: LOX IMVI melanoma
[7] = system: UO-31 renal
[8] = system: SNB-19 CNS
[9] = system: HT29 colon
[10] = system: HL-60(TB) leukemia

| SMILES | TGI [1] | TGI [2] | TGI [3] | TGI [4] | TGI [5] | TGI [6] | TGI [7] | TGI [8] | TGI [9] | GI50 [3] | TGI [10] | GI50 [1] | GI50 [2] | GI50 [4] | GI50 [5] | GI50 [6] | GI50 [7] | GI50 [8] | GI50 [9] | GI50 [10] |
| --- | --- | --- | --- | --- | --- | --- | --- | --- | --- | --- | --- | --- | --- | --- | --- | --- | --- | --- | --- | --- |
| CCOC(=O)C1COc2cc(-c3cc(=O)c4ccccc4o3)ccc2O1 (stereo not given) | > 100 µM | > 100 µM | > 100 µM | > 100 µM | 96.3 µM | > 100 µM | 76.8 µM | > 100 µM | 56.3 µM |  |  |  |  |  |  |  |  |  |  |  |
| CCOC(=O)[C@H]1Nc2ccccc2C2c3ccccc3CC21 (stereo not given in full) | > 100 µM | > 100 µM | > 100 µM | > 100 µM | > 100 µM | > 100 µM | > 100 µM | > 100 µM | 37.2 µM |  |  |  |  |  |  |  |  |  |  |  |
| O=c1cc(-c2ccccn2)[nH]c2ccc(Cl)cc12 | > 100 µM |  | > 100 µM | > 100 µM | > 100 µM | > 100 µM | > 100 µM | > 100 µM | > 100 µM | 51.5 µM | > 100 µM |  |  |  |  |  |  |  |  |  |
| CCCCCCCCCCCCCc1nn[nH]n1 |  |  | 34.6 µM | 44.6 µM | 32.2 µM | 35.4 µM | 29.5 µM | 33 µM | 33 µM |  | 39.9 µM |  |  |  |  |  |  |  |  |  |
| CC1CC[C@]2(C(=O)O)CCC3(C)C(=CCC4[C@@]5(C)CC[C@H](OS(=O)(=O)c6ccccc6)C(C)(C)C5CC[C@]43C)[C@@H]2[C@H]1C (stereo not given in full) | > 100 µM | > 100 µM | > 100 µM | > 100 µM | > 100 µM | > 100 µM | > 100 µM | > 100 µM | > 100 µM |  |  |  |  |  |  |  |  |  |  |  |
| Cc1ccc(NC(=O)CC(=O)N2N=C(N(CCC#N)c3cccc(C)c3)CC2c2ccccc2)cc1 (stereo not given) | > 100 µM |  | > 100 µM | > 100 µM | > 100 µM |  | > 100 µM | > 100 µM | > 100 µM |  | > 100 µM |  |  |  |  |  |  |  |  |  |
| Oc1[nH]c2cc(Cl)ccc2c1/C=c1/ccc2c(c1)N=C(c1cc(F)cc(F)c1)N=2 | 5.72 µM | 16.6 µM | 2.84 µM | 13 µM | 5.96 µM | 15.2 µM | 19 µM | 26.2 µM | 5.94 µM | 0.509 µM |  | 1.45 µM | 1.73 µM | 2.47 µM | 2.04 µM | 2.22 µM | 3.68 µM | 6.22 µM | 1.72 µM |  |
| CCOc1cc(-c2ccc[nH]2)[nH]c1/C=C1\N=C(C)C(C(=O)OC)=C1C |  | 0.194 µM |  | 1.92 µM | 0.968 µM | 0.0381 µM | 0.143 µM | 2.91 µM | 1.06 µM |  | 1.69 µM |  | 0.0331 µM | 0.0876 µM | 0.059 µM | 0.0102 µM | 0.0252 µM | 0.239 µM | < 0.0123 µM | 0.0235 µM |
| CC(=O)Oc1ccc(/C=N/NC(N)=S)nc1 | > 100 µM |  | 42.6 µM | > 100 µM | > 100 µM | > 100 µM | 14.1 µM | > 100 µM | > 100 µM | 6.42 µM | 8.44 µM | 2.57 µM |  | 2.39 µM | 2.36 µM | 3.54 µM | 3.51 µM | 8.77 µM | 19 µM | 1.74 µM |
| CCCCCCCCCCCCOP(N)(=O)OCCCCCCCCCCCC | > 100 µM |  | > 100 µM | > 100 µM | > 100 µM | > 100 µM | > 100 µM | > 100 µM |  |  | > 100 µM |  |  |  |  |  |  |  |  |  |
| CC1(C)CC[C@]2(C(N)=O)CC[C@]3(C)C(=CC[C@@H]4[C@@]5(C)C/C(=C/c6ccncc6)C(=O)C(C)(C)[C@@H]5CC[C@]43C)[C@@H]2C1 | 6.02 µM |  | 3.42 µM | 9.62 µM | 3.34 µM |  | 2.91 µM | 3.24 µM |  | 1.67 µM | 4.59 µM | 2 µM |  | 2.89 µM | 1.81 µM |  | 1.48 µM | 1.59 µM |  | 1.98 µM |
| Cc1cc(Cl)cc2c1NC(=O)C2=O (tested in a mixture with another compound) | 54.7 µM | > 100 µM | > 100 µM | > 100 µM | > 100 µM | 33.2 µM | > 100 µM | > 100 µM | > 100 µM |  |  |  |  |  |  |  |  |  |  |  |
| CN1CCN(c2nc(-c3ccncc3)nc3sc4c(c23)CCCCCC4)CC1 | 16.2 µM | 19.4 µM |  | 24.3 µM | 21 µM | 20.5 µM | 8.85 µM |  | 17.3 µM |  | 29.8 µM | 3.8 µM | 3.44 µM | 11.4 µM | 8.32 µM | 8.23 µM | 1.57 µM |  | 4.75 µM | 12.6 µM |
| COc1ccc(C2CCc3cc4c(cc3/C2=N/OC(C)=O)OCO4)cc1OC (stereo not given) | 52 µM |  | 82.2 µM | 72.6 µM | 35.7 µM | 33.1 µM | 51.1 µM | > 100 µM | > 100 µM |  |  |  |  |  |  |  |  |  |  |  |
| O=c1c2ccccc2oc2ccc(OCCCCCCN3CCCCCC3)cc12 | 6.29 µM |  | 5.87 µM | 11.7 µM | 3.4 µM | 3.54 µM | 6.32 µM | 14.4 µM | 6.57 µM | 2.16 µM | 3.97 µM | 2.38 µM |  | 3.1 µM | 1.76 µM | 1.85 µM | 2.05 µM | 4.12 µM | 1.91 µM | 1.84 µM |
| O=C(Cc1ccccc1)NN1C(=O)/C(=C\c2ccc(O)cc2)SC1=Nc1ccccc1 | > 100 µM |  | > 100 µM | > 100 µM | > 100 µM |  | > 100 µM | > 100 µM | > 100 µM |  | > 100 µM |  |  |  |  |  |  |  |  |  |
| CCC1CNC(=O)CC1CC(=O)OC (stereo not given) | > 100 µM | > 100 µM |  | > 100 µM |  | > 100 µM | > 100 µM | > 100 µM |  |  | > 100 µM |  |  |  |  |  |  |  |  |  |
| O=C(Cc1csc2nc(-c3ccc(Br)cc3)cn12)N/N=C/c1ccc(O)cc1 |  | 49.3 µM | 41.7 µM | 32.2 µM | 46.5 µM | 26.1 µM | > 100 µM | > 100 µM | > 100 µM | 12 µM |  | 4.21 µM | 14.9 µM | 7.5 µM | 18.4 µM | 11.1 µM | 26.3 µM | 57.5 µM | 49.9 µM |  |
